From paper PMC8291587, “Guanidine Derivatives: How Simple Structural Modification of Histamine H3R Antagonists Has Led to the Discovery of Potent Muscarinic M2R/M4R Antagonists” (ACS Chemical Neuroscience, 2021)
“And” between values parts separate entries of the source, which are not always exact repeats. Identical values can stand only once. Like-named read-outs stand apart in the source and are kept apart here.

Legend:
hH3R = biological target: T1, hH3R (Homo sapiens, UniProt Q9Y5N1); test: hH3R radioligand displacement binding assay ([3H]-Nα-methylhistamine, HEK-293 cell membranes); settings: [3H]-Nα-methylhistamine; HEK-293 membranes; read-out: hH3R -log(Ki) ± sem (converted)
T1 construct: expressed in transfected cells; membrane fractions
Method: [^3H]-N^α-Methylhistamine was used as a radiolabeled ligand.
The radioligand displacement binding assay was performed in membrane fractions of HEK-293 cells stably expressing hH3R. Cell cultivation and membrane preparation were performed according to Kottke et al.[43] […] The total assay volume was set to 200 μL. The compounds were tested in several appropriate concentrations between 100 μM and 0.1 nM. Pipetting was partly done by Freedom Evo (Tecan). […] The membrane fraction (20 μg/well), test compounds, and radiolabeled ligand were incubated for 90 min at 25 °C while shaking. The bound radioligand was separated from free radioligand by filtration through GF/B filters pretreated with 0.3% (m/v) polyethylenimine using a cell harvester. Radioactivity was determined by liquid scintillation counting using a MicroBeta Trilux (PerkinElmer). The data were obtained in duplicates in at least three independent experiments. Nonspecific binding was subtracted from the raw data to calculate specific-binding values. The evaluation was performed with GraphPad Prism 6.1 (San Diego, CA, USA) using nonlinear regression (one-site competition with a logarithmic scale). The Ki values were calculated from the IC50 values using the Cheng–Prusoff equation.[44] The statistical calculations were performed on −log Ki. The mean values and 95% confidence intervals were transformed to nanomolar concentrations.

[1] = tested on: electrically stimulated guinea pig ileum; test: Decrease of contractility in electrically stimulated guinea pig ileum (-log EC50 determination); settings: for EC50: Cavia porcellus, read-out: Decrease of contractility (-logEC50 ± sem) (converted); for intrinsic activity (maximal response as fraction of maximal response of the system): from concentration–response curves
Method: A standard ex vivo assay based on the relaxant response of histamine H3R agonists to electrically driven guinea pig ileum was used to test the influence of ADS compounds on the reduction of electrically evoked tissue contraction. […] The −log EC50 value for RAMH and ADS compounds were evaluated. […] Following this, we decided to evaluate the ADS series as potential M2R/M3R ligands on the isolated guinea pig ileum.
Male guinea pigs, weighing 300–400 g, were euthanized by a blow to the neck. A 20–30 cm length of the distal ileum, apart from the terminal 5 cm, was rapidly removed and placed in phosphate buffer at room temperature (pH 7.4) containing (mM) NaCl (136.9), KCl (2.6), KH2PO4 (1.47), Na2HPO4 (9.58), and indomethacin (1 × 10^–6 mol/L)). The intraluminal content was rinsed, and the isolated intestine was cut into 1.5–2 cm segments. The preparations were mounted between two platinum electrodes isotonically in a 20 mL organ bath filled with Krebs buffer: composition (mM) NaCl (118), KCl (5.6), MgSO4 (1.18), CaCl2 (2.5), NaH2PO4·H2O (1.28), NaHCO3 (25), glucose (5.55), and indomethacin (3 × 10^–7 mol/L). The solution was continuously bubbled with a 95% O2:5% CO2 mixture and maintained at 37 °C under a constant load of 1.0 g (Hugo Sachs Hebel–Messvorsatz (Tl-2)/HF-modem; Hugo Sachs Elektronik, Hugstetten, Germany) connected to a pen recorder (Kipp & Zonen BD41, Delft, Holland). During an equilibration period of 60 min, Krebs buffer was changed every 10 min. Following this, the preparations were continuously stimulated at 15–20 V, at a frequency of 0.1 Hz for a duration of 0.5 ms, with rectangular-wave electrical pulses (Grass Stimulator S-88; Grass Instruments Co., Quincy, Massachusetts, USA). […] Cumulative concentration–response curve was determined to RAMH or tested agonist (10 nM to 10 mM) at increasing concentrations spaced by 3- or 3.3-fold. The agonist potency is expressed as pD2 value (−log EC50) ± sem.

M2R/M3R = test: Ex vivo screening of muscarinic M2R/M3R antagonists on isolated guinea pig ileum (methacholine-induced contraction); settings: methacholine as agonist
Method: Another group of guinea pig intestinal receptors able to regulate smooth muscle contraction is that of the muscarinic receptors, including M2R and M3R. All compounds were tested on the muscarinic receptors using the same animal model. This approach is similar to measuring histamine H1R antagonist activity. Methacholine was used as a receptor agonist, while 1,1-dimethyl-4-diphenylacetoxypiperidinium iodide (4-DAMP) was used as a reference M3R antagonist. As methacholine is not selective according to M2R and M3R, it is not possible to precisely specify which one was responsible for the effect observed on the tissue preparations. Some authors often attribute the results to the minor M3R subtype (gpM2R:M3R = 4:1 or 5:1), which is generally associated with the contractions,[38] but such an overinterpretation may be misleading, as indicated by our further hM1R-hM5R radioligand binding assay results shown in Table 2. […] These findings partially explain the influence of ADS10227 on the contractility of guinea pig ileum following electrical stimulation. […] In subsequent studies, we tried to clarify this.
Male guinea pigs, weighing 300–400 g, were euthanized by a blow to the neck. A 20–30 cm length of the distal ileum, apart from the terminal 5 cm, was rapidly removed and placed in phosphate buffer at room temperature (pH 7.4) containing (mM) NaCl (136.9), KCl (2.6), KH2PO4 (1.47), Na2HPO4 (9.58), and indomethacin (1 × 10^–6 mol/L)). The intraluminal content was rinsed, and the isolated intestine was cut into 1.5–2 cm segments. The preparations were mounted isotonically in a 20 mL organ bath filled with Tyrode’s buffer: composition (mM) NaCl (137), KCl (2.7), MgCl2·6H2O (1.0), CaCl2 (1.8), NaH2PO4·H2O (0.4), NaHCO3 (11.9), glucose (5.61), and indomethacin (3 × 10^–7 mol/L). The solution was continuously bubbled with a 95% O2:5% CO2 mixture and maintained at 37 °C under a constant load of 0.5 g (Hugo Sachs Hebel–Messvorsatz (Tl-2)/HF-modem; Hugo Sachs Elektronik, Hugstetten, Germany) connected to a pen recorder (Kipp & Zonen BD41, Delft, Holland). During an equilibration period of 40 min, Tyrode’s buffer was changed every 10 min. The first cumulative concentration–response curve was determined for methacholine (10 nM to 3 mM) at increasing concentrations spaced by 3- or 3.3-fold. The second to the fourth (or fifth) curves were measured in the presence of an increasing concentration of antagonist (incubation time 20 min). The pA2 values were calculated according to Arunlakshana and Schild.[37] Statistical analysis was carried out with the Students’ t test. In all tests, a p < 0.05 was considered statistically significant.

[2] = electrically stimulated guinea pig ileum

T1 sequence (Q9Y5N1 whole entry): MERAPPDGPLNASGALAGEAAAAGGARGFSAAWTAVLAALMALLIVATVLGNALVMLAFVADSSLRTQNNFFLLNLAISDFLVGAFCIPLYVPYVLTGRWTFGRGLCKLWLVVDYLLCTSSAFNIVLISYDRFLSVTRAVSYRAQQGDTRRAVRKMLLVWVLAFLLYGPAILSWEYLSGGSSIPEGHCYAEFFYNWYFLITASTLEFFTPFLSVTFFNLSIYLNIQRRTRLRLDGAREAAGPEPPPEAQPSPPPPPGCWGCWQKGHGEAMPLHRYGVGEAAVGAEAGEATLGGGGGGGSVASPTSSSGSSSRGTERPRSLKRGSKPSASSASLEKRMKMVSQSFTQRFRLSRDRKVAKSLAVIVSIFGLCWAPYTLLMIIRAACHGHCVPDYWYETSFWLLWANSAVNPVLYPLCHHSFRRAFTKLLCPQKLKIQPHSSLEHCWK

| Structure (SMILES) | Ki (hH3R) [nM] | EC50 [1, 2] [nM] | intrinsic activity (maximal response as fraction of maximal response of the system) [1, 2] | M2R/M3R pA2 gpi ± sem (M2R/M3R) | EC50 [1] [nM] |
| --- | --- | --- | --- | --- | --- |
| [H]/N=C(/N)N(CCCCN1CCN(CC2CCC(COc3ccccc3)CC2)CC1)Cc1ccc(C(F)(F)F)cc1 (stereo not shown) [ADS10239] | 2340 | 240 | 0.98 | 6.46±0.11 | – |
| N=C(N)N(CCCCN1CCN(C[C@H]2CC[C@@H](COc3ccccc3)CC2)CC1)Cc1ccccc1 [ADS10227, 1-{4-{4-{[4-(phenoxymethyl)cyclohexyl]methyl}piperazin-1-yl}but-1-yl}-1-(benzyl)guanidine] | 5890 | 132 | 0.97 | 6.97±0.09 | – |
| N=C(N)N(CCCCN1CCN(CCCCCCCOc2ccccc2)CC1)Cc1ccccc1 [ADS1017] | – | – | – | 6.36 and 6.36 ±0.10 | 661 |
